This is an account of results in ChEMBL document CHEMBL1157682, “In silico prediction of human carboxylesterase-1 (hCES1) metabolism combining docking analyses and MD simulations” (Bioorg Med Chem, 2010).

This data set concerns the target T1, Liver carboxylesterase 1 (Homo sapiens, UniProt P23141).
T1 sequence (P23141 whole entry): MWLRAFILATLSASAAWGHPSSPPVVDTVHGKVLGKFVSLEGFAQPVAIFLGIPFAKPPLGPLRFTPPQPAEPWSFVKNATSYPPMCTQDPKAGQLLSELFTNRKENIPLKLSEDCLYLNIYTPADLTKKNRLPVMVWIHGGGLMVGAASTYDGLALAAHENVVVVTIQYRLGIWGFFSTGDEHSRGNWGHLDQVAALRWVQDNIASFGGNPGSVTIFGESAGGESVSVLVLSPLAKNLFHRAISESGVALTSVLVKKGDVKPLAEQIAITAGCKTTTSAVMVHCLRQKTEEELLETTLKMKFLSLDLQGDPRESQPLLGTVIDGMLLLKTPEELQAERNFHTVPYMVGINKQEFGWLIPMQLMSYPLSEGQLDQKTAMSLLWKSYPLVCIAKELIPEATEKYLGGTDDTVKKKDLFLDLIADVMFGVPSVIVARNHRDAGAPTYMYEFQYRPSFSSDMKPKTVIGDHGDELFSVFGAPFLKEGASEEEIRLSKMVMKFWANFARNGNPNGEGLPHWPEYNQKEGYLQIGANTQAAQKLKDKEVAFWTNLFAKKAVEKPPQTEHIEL
Put plainly: Activity at human recombinant CES1 expressed in baculovirus-infected Spodoptera frugiperda Sf21 cells assessed as substrate hydrolysis by fluorescence assay.

Several values for one entry are separate records, joined by “and”; a condition that tells them apart may be missing. Equal values may be shown once.

For the compound `CC(C)[C@H](N)C(=O)OC[C@H]1O[C@@H](n2cc(F)c(=O)[nH]c2=O)C[C@@H]1O`, the pKm was found to be 2.45.
Regarding `COc1ccc2cc([C@H](C#N)OC(=O)[C@H]3[C@H](C=C(Cl)Cl)C3(C)C)ccc2c1`, the pKm is 5.72.
`CC(C)C[C@H](N)C(=O)OC[C@H]1O[C@@H](n2cc(F)c(=O)[nH]c2=O)C[C@@H]1O`: the pKm worked out at 3.01.
Regarding `CC(C)=C[C@H]1[C@H](C(=O)OCc2coc(Cc3ccccc3)c2)C1(C)C` (relative stereo), the pKm was 5.17.
Take `CC1(C)[C@H](C(=O)OCc2cccc(Oc3ccccc3)c2)[C@@H]1C=C(Cl)Cl`: the pKm is reported as 4.62.
With `COc1ccc2cc([C@H](C#N)OC(=O)[C@@H]3[C@@H](C=C(Cl)Cl)C3(C)C)ccc2c1`, the pKm amounted to 5.77.
In the case of `CCOC(=O)[C@H](CCc1ccccc1)N[C@@H](C)C(=O)N1Cc2ccccc2C[C@H]1C(=O)O`, the pKm amounted to 3.87.
The figure for `COC(=O)[C@@H](c1ccccc1)[C@@H]1CCCCN1` is 4.05; for `CCOC(=O)[C@H](CCc1ccccc1)N[C@H]1CCCN2CCC[C@@H](C(=O)O)N2C1=O` [CILAZAPRIL] it is 2.89; for `CCc1c2c(nc3ccc(OC(=O)N4CCC(N5CCCCC5)CC4)cc13)-c1cc3c(c(=O)n1C2)COC(=O)[C@]3(O)CC` [IRINOTECAN] it is 2.84.
Consider `COc1ccc(C(=O)N2CCCC2=O)cc1`, for which the pKm is 4.07 and 4.02.
As to `COc1ccc2cc([C@H](C#N)OC(=O)[C@H]3[C@@H](C=C(Cl)Cl)C3(C)C)ccc2c1`, the pKm came to 5.82.
For the compound `CCOC(=O)[C@H](CCc1ccccc1)N[C@H]1CS[C@H](c2cccs2)CN(CC(=O)O)C1=O` [TEMOCAPRIL], the pKm was 3.1.
The figure for `CCOC(=O)C1=C[C@@H](OC(CC)CC)[C@H](NC(C)=O)[C@@H](N)C1` [OSELTAMIVIR] is 3.75.
For `COc1cc(C(=O)OCCCN2CCCN(CCCOC(=O)c3cc(OC)c(OC)c(OC)c3)CC2)cc(OC)c1OC` [DILAZEP], the pKm worked out at 3.81.
The figure for `CCCC(=O)Oc1ccc([N+](=O)[O-])cc1` is 3.89; for `COC(=O)[C@H](c1ccccc1Cl)N1CCc2sccc2C1` [CLOPIDOGREL] it is 4.25; for `COC(=O)[C@H]1[C@@H](OC(=O)c2ccccc2)C[C@@H]2CC[C@H]1N2C` [COCAINE] it is 3.92.
Then `COc1ccc2cc([C@@H](C#N)OC(=O)[C@H]3[C@@H](C=C(Cl)Cl)C3(C)C)ccc2c1`, with 5.85.
Turning to `CC1(C)[C@H](C=C(Cl)Cl)[C@H]1C(=O)OCc1cccc(Oc2ccccc2)c1` (stereo in doubt), the pKm was found to be 5.01.
Then `N[C@@H](Cc1ccccc1)C(=O)OC[C@H]1O[C@@H](n2cc(F)c(=O)[nH]c2=O)C[C@@H]1O`, with 3.34; and `CCOC(=O)[C@H](CCc1ccccc1)N[C@@H](C)C(=O)N1C(=O)N(C)C[C@H]1C(=O)O`, with 3.54.
Consider `N[C@@H](CC(=O)O)C(=O)OC[C@H]1O[C@@H](n2cc(F)c(=O)[nH]c2=O)C[C@@H]1O`, for which the pKm was 2.52.
For `CCOC(=O)[C@H](CCc1ccccc1)N[C@@H](C)C(=O)N(CC(=O)O)C1Cc2ccccc2C1`, the pKm came to 2.82.
In the case of `CCCCCOC(=O)Nc1nc(=O)n([C@@H]2O[C@H](C)[C@@H](O)[C@H]2O)cc1F` [CAPECITABINE], the pKm is 2.89.
Consider `CC1(C)[C@@H](C=C(Cl)Cl)[C@@H]1C(=O)OCc1cccc(Oc2ccccc2)c1` (stereo in doubt), for which the pKm came to 5.01.
With `CC(=O)Oc1ccc2c(C)cc(=O)oc2c1`, the pKm is on record as 3.1.
In the case of `COc1ccc2cc([C@@H](C#N)OC(=O)[C@@H]3[C@@H](C=C(Cl)Cl)C3(C)C)ccc2c1`, the pKm was determined as 6.15.
On to `COc1ccc2cc([C@H](C#N)OC(=O)[C@@H]3[C@H](C=C(Cl)Cl)C3(C)C)ccc2c1`, for which the pKm came to 6.52.
Take `CC1(C)[C@H](C=C(Cl)Cl)[C@@H]1C(=O)OCc1cccc(Oc2ccccc2)c1`: the pKm came out at 4.62.
With `COc1ccc2cc(C(C#N)OC(=O)C3C(C)(C)C3(C)C)ccc2c1` (centres undefined), the pKm came out at 5.82.
For `CC(=O)Oc1ccc2c3c1O[C@H]1[C@@H](OC(C)=O)C=C[C@H]4[C@@H](C2)N(C)CC[C@@]341` [DIACETYLMORPHINE], the pKm was found to be 2.2.
As for `CC(=O)O[C@H]1C=C[C@H]2[C@H]3Cc4ccc(O)c5c4[C@@]2(CCN3C)[C@H]1O5`, the pKm came to 2.08.
Turning to `COC(=O)[C@H](c1ccccc1)[C@H]1CCCCN1` [DEXMETHYLPHENIDATE], the pKm is 4.36.
As for `CCOC(=O)C1(c2ccccc2)CCN(C)CC1` [MEPERIDINE], the pKm is given as 2.72.
Turning to `COc1ccc2cc([C@@H](C#N)OC(=O)[C@H]3[C@H](C=C(Cl)Cl)C3(C)C)ccc2c1`, the pKm is recorded as 5.62.
Consider `CCOC(=O)[C@H](CCc1ccccc1)N[C@H]1CCc2ccccc2N(CC(=O)O)C1=O` [BENAZEPRIL], for which the pKm came to 3.13.
Turning to `CC(=O)Oc1ccc([N+](=O)[O-])cc1` [4-NITROPHENYL ACETATE], the pKm stood at 3.44.
On to `CN(C)C(=O)COC(=O)Cc1ccc(OC(=O)c2ccc(NC(=N)N)cc2)cc1` [CAMOSTAT], for which the pKm was 3.15.
